Assay results: ChEMBL document CHEMBL3881526, “Selective androgen receptor modulators and method of use thereof” (2007)
Activity calls are given as the source filed them. The rule behind the calls is not given here.

Experiments:
Rattus norvegicus [1] = assay: Effect on lung weight in ORX Sprague-Dawley rat at 0.1 to 1 ug/day delivered at constant rate for 14 days via subcutaneous osmotic pumps; assay type: ADME, tissue-based; conditions: sc, 336 h
Rattus norvegicus [2] = assay: Effect on spleen weight in ORX Sprague-Dawley rat at 0.1 to 1 ug/day delivered at constant rate for 14 days via subcutaneous osmotic pumps; assay type: ADME, tissue-based; conditions: in vivo, sc, 336 h
Rattus norvegicus [3] = assay: Anabolic activity in ORX Sprague-Dawley rat assessed as restoration of levator ani muscle weight at 0.1 to 1 ug/day delivered at constant rate for 14 days via subcutaneous osmotic pumps; assay type: functional
Rattus norvegicus [4] = assay: Androgenic activity in ORX Sprague-Dawley rat assessed as restoration of seminal vesicles weight at 0.1 to 1 ug/day delivered at constant rate for 14 days via subcutaneous osmotic pumps; assay type: functional
Rattus norvegicus [5] = assay: Suppression of serum FSH in ORX Sprague-Dawley rat at =>0.3 mg/day delivered at constant rate for 14 days via subcutaneous osmotic pumps; assay type: functional
Rattus norvegicus [6] = assay: Androgenic activity in ORX Sprague-Dawley rat assessed as restoration of prostate weight at 0.1 to 1 ug/day delivered at constant rate for 14 days via subcutaneous osmotic pumps; assay type: functional
[7] = Toxicity in ORX Sprague-Dawley rat assessed as induction of toxicity signs at 0.1 to 1 ug/day delivered at constant rate for 14 days via subcutaneous osmotic pumps by visual examination test; conditions: in vivo, sc, 336 h
Rattus norvegicus [8] = assay: Effect on heart weight in ORX Sprague-Dawley rat at 0.1 to 1 ug/day delivered at constant rate for 14 days via subcutaneous osmotic pumps; assay type: ADME, tissue-based; conditions: in vivo, sc, 336 h
[9] = Toxicity in ORX Sprague-Dawley rat assessed as induction of toxicity signs at 0.1 to 1 ug/day delivered at constant rate for 14 days via subcutaneous osmotic pumps by diagnostic hematology test; conditions: in vivo, sc, 336 h

## C[C@](O)(COc1ccc(F)cc1)C(=O)Nc1ccc([N+](=O)[O-])c(C(F)(F)F)c1
Rattus norvegicus [1]
  Activity: Non-Toxic
Rattus norvegicus [2]
  Activity: Non-Toxic
Rattus norvegicus [3]
  Activity: Active
Rattus norvegicus [4]
  Activity: <40%
Rattus norvegicus [5]
  Activity: Active
Rattus norvegicus [6]
  Activity: <40%
[7]
  Activity: Non-Toxic
Rattus norvegicus [8]
  Activity: Non-Toxic
[9]
  Activity: Non-Toxic
